# Experimental data reported in publication PMC7379272, “Functional analysis of UGT201D3 associated with abamectin resistance in Tetranychus cinnabarinus (Boisduval)” (Insect Science, 2018).
# Biological target: T1, (UniProt A0A221C6W1)
# T1 construct: gene UGT201D3; recombinant pET-28a-UGT201D3q, 15 N-terminal hydrophobic amino acids removed, expressed in E. coli BL21 (DE3), Ni-NTA purified
# Assay: inhibition of α-naphthol glycosylation by the purified recombinant enzyme, Dixon plot (IC50 […]); HPLC depletion of abamectin
# Format: biochemical, Tetranychus cinnabarinus
# T1 sequence (A0A221C6W1 16-460 limits assumed): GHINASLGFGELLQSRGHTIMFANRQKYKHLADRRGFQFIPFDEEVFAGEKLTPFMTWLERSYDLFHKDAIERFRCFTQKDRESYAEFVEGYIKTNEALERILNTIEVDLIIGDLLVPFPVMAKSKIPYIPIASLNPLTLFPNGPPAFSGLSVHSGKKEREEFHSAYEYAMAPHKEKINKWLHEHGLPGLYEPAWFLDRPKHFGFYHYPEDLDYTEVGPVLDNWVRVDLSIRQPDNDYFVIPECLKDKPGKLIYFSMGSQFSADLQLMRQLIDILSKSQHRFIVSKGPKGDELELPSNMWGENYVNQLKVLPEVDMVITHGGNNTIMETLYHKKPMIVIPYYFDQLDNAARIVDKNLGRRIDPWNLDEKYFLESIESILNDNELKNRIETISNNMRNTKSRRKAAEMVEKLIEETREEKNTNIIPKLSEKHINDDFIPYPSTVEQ
compound,measurement,value
CC[C@H](C)[C@H]1O[C@]2(C=C[C@@H]1C)C[C@@H]1C[C@@H](C/C=C(\C)[C@@H](O[C@H]3C[C@H](OC)[C@@H](O[C@H]4C[C@H](OC)[C@@H](O)[C@H](C)O4)[C@H](C)O3)[C@@H](C)/C=C/C=C3\CO[C@@H]4[C@H](O)C(C)=C[C@@H](C(=O)O1)[C@]34O)O2.CO[C@H]1C[C@H](O[C@H]2[C@H](C)O[C@@H](O[C@@H]3/C(C)=C/C[C@@H]4C[C@@H](C[C@]5(C=C[C@H](C)[C@@H](C(C)C)O5)O4)OC(=O)[C@@H]4C=C(C)[C@@H](O)[C@H]5OC/C(=C\C=C\[C@@H]3C)[C@]54O)C[C@@H]2OC)O[C@@H](C)[C@@H]1O [abamectin],Ki,9.9 ± 6.2 µM
